{"source": "the supplement of paper PMC11208160"}
{"experiment": "recombinant barcode read abundance after kanamycin selection (control-corrected) (log10(CPM+1)); higher = more efficient recombination; sequences stand for … in AGTGCAGAGAAAATCGGCCAGTTTTCTCTGCCTGCAGTCCGCATGCCGT…AGATTTATGCAGCGGACTGCCTTTCTCCCAAAGTGATAAACCGGACAGTATCATGGACCGGTTTTCCCGGTAATCCGTATTTGCAAGGTTGGTTTCACT; site = the 11-nt target", "how_it_was_run": "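Oligos holding a promoter, target, barcode and the J23119-driven first 104 bases of the bridge RNA were Gibson-cloned into a vector that supplied the other 73 bp plus a T7-inducible recombinase. This library was co-electroporated with a donor plasmid into E. coli. Two replicates went on chloramphenicol/ampicillin LB agar (control) and two on chloramphenicol/ampicillin/kanamycin with 0.1 mM IPTG. Recombination efficiency is read from averaged, control-corrected barcode counts per million at recombinant junctions, reported as log10(CPM+1).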"}
{"sequence": "CTGACTTCTTGGGTTCTAACCTGTTGCCT (site CCGACTTCTAG)", "recombinant barcode read abundance (log10)": 0.0377}
{"sequence": "CTGACTTCTTGGGTTCTAACCTGTTGCCT (site CGGACTTCTAG)", "recombinant barcode read abundance (log10)": 0.079}
{"sequence": "CTGACTTCTTGGGTTCTAACCTGTTGCCT (site CTGACTTCTAG)", "recombinant barcode read abundance (log10)": 0.121}
{"sequence": "CTGAGTACTTGGGTTCTAACCTGTTGCCT (site ATCAGTACTAG)", "recombinant barcode read abundance (log10)": 0.0653}
{"sequence": "CTGAGTACTTGGGTTCTAACCTGTTGCCT (site CTGAGTACTAG)", "recombinant barcode read abundance (log10)": 1.08}
{"sequence": "CTGAGTCCTTGGGTTCTAACCTGTTGCCA (site CTGAGTCCTTG)", "recombinant barcode read abundance (log10)": 0.424}
{"sequence": "CTGAGTCCTTGGGTTCTAACCTGTTGCCA (site CTGAGTTCTTG)", "recombinant barcode read abundance (log10)": 0.402}
{"sequence": "CTGATCCCTTGGGTTCTAACCTGTTGCCT (site CAGATCCCTAG)", "recombinant barcode read abundance (log10)": 0.629}
{"sequence": "CTGATCCCTTGGGTTCTAACCTGTTGCCT (site CCGATCCCTAG)", "recombinant barcode read abundance (log10)": 0.182}
{"sequence": "CTGATCCCTTGGGTTCTAACCTGTTGCCT (site CGGATCCCTAG)", "recombinant barcode read abundance (log10)": 0.255}
{"sequence": "CTGATCCCTTGGGTTCTAACCTGTTGCCT (site CTGATCCCTAG)", "recombinant barcode read abundance (log10)": 1.22}
{"sequence": "CTGATGACTTGGGTTCTAACCTGTTGCCT (site CTGATAACTAG)", "recombinant barcode read abundance (log10)": 0.177}
{"sequence": "CTGATGACTTGGGTTCTAACCTGTTGCCT (site CTGATCACTAG)", "recombinant barcode read abundance (log10)": 0.247}
{"sequence": "CTGATGACTTGGGTTCTAACCTGTTGCCT (site CTGATGACTAG)", "recombinant barcode read abundance (log10)": 0.999}
{"sequence": "CTGATGACTTGGGTTCTAACCTGTTGCCT (site CTGATTACTAG)", "recombinant barcode read abundance (log10)": 0.0174}
{"sequence": "CTGATGTCTTGGGTTCTAACCTGTTGCCA (site CTGATGTCTTG)", "recombinant barcode read abundance (log10)": 0.456}
{"sequence": "CTGATGTCTTGGGTTCTAACCTGTTGCCA (site CTGCTGTCTTG)", "recombinant barcode read abundance (log10)": 0.126}
{"sequence": "CTGATGTCTTGGGTTCTAACCTGTTGCCA (site CTGGTGTCTTG)", "recombinant barcode read abundance (log10)": 0.388}
{"sequence": "CTGATGTCTTGGGTTCTAACCTGTTGCCA (site CTGTTGTCTTG)", "recombinant barcode read abundance (log10)": 0.136}
{"sequence": "CTGCACCCTTGGGTTCTAACCTGTTGCTA (site CTGCACCCTTA)", "recombinant barcode read abundance (log10)": 1.61}
{"sequence": "CTGCACCCTTGGGTTCTAACCTGTTGCTA (site GGCGGAGCTCG)", "recombinant barcode read abundance (log10)": 0.378}
{"sequence": "CTGCACTCTTGGGTTCTAACCTGTTGCCA (site CTGCACTCTTG)", "recombinant barcode read abundance (log10)": 0.842}
{"sequence": "CTGCACTCTTGGGTTCTAACCTGTTGCCA (site CTGTACTCTAG)", "recombinant barcode read abundance (log10)": 0.28}
{"sequence": "CTGCAGACTTGGGTTCTAACCTGTTGCCG (site CTCCAGACTCT)", "recombinant barcode read abundance (log10)": 0.37}
{"sequence": "CTGCAGACTTGGGTTCTAACCTGTTGCCG (site CTGCAGACTCG)", "recombinant barcode read abundance (log10)": 0.41}
{"sequence": "CTGCAGTCTTGGGTTCTAACCTGTTGCCA (site CTGCAGTCTTG)", "recombinant barcode read abundance (log10)": 0.18}
{"sequence": "CTGCAGTCTTGGGTTCTAACCTGTTGCCA (site TGCATAGCTCT)", "recombinant barcode read abundance (log10)": 0.126}
{"sequence": "CTGCTCCCTTGGGTTCTAACCTGTTGCGG (site CTGATCCCTCC)", "recombinant barcode read abundance (log10)": 0.124}
{"sequence": "CTGCTCCCTTGGGTTCTAACCTGTTGCGG (site CTGCTCCCTCC)", "recombinant barcode read abundance (log10)": 0.36}
{"sequence": "CTGCTCCCTTGGGTTCTAACCTGTTGCGG (site CTGGTCCCTCC)", "recombinant barcode read abundance (log10)": 0.306}
{"sequence": "CTGCTCCCTTGGGTTCTAACCTGTTGCGG (site CTGTTCCCTCC)", "recombinant barcode read abundance (log10)": 0.0581}
{"sequence": "CTGGAGACTTGGGTTCTAACCTGTTGCTT (site AGAACTCCTTC)", "recombinant barcode read abundance (log10)": 0.0253}
{"sequence": "CTGGAGACTTGGGTTCTAACCTGTTGCTT (site CTGGAGACTAA)", "recombinant barcode read abundance (log10)": 1.93}
{"sequence": "CTGGCCACTTGGGTTCTAACCTGTTGCCT (site CAGGCCACTAG)", "recombinant barcode read abundance (log10)": 0.115}
{"sequence": "CTGGCCACTTGGGTTCTAACCTGTTGCCT (site CCGGCCACTAG)", "recombinant barcode read abundance (log10)": 0.0832}
{"sequence": "CTGGCCACTTGGGTTCTAACCTGTTGCCT (site CGGGCCACTAG)", "recombinant barcode read abundance (log10)": 0.0825}
{"sequence": "CTGGCCACTTGGGTTCTAACCTGTTGCCT (site CTGGCCACTAG)", "recombinant barcode read abundance (log10)": 0.766}
{"sequence": "CTGGCGTCTTGGGTTCTAACCTGTTGCCT (site CTGGAGTCTAG)", "recombinant barcode read abundance (log10)": 0.263}
{"sequence": "CTGGCGTCTTGGGTTCTAACCTGTTGCCT (site CTGGCGTCTAG)", "recombinant barcode read abundance (log10)": 1.1}
{"sequence": "CTGGCGTCTTGGGTTCTAACCTGTTGCCT (site CTGGGGTCTAG)", "recombinant barcode read abundance (log10)": 0.0321}
{"sequence": "CTGGCGTCTTGGGTTCTAACCTGTTGCCT (site CTGGTGTCTAG)", "recombinant barcode read abundance (log10)": 0.0782}
{"sequence": "CTGGGAACTTGGGTTCTAACCTGTTGCAG (site CTCGGAACTAT)", "recombinant barcode read abundance (log10)": 0.149}
{"sequence": "CTGGGAACTTGGGTTCTAACCTGTTGCAG (site CTGGGAACTCT)", "recombinant barcode read abundance (log10)": 0.836}
{"sequence": "CTGGGGTCTTGGGTTCTAACCTGTTGCCT (site CTGGAGTCTAG)", "recombinant barcode read abundance (log10)": 0.858}
{"sequence": "CTGGGGTCTTGGGTTCTAACCTGTTGCCT (site CTGGCGTCTAG)", "recombinant barcode read abundance (log10)": 0.36}
{"sequence": "CTGGGGTCTTGGGTTCTAACCTGTTGCCT (site CTGGGGTCTAG)", "recombinant barcode read abundance (log10)": 2.45}
{"sequence": "CTGGGGTCTTGGGTTCTAACCTGTTGCCT (site CTGGTGTCTAG)", "recombinant barcode read abundance (log10)": 0.173}
{"sequence": "CTGGTGTCTTGGGTTCTAACCTGTTGCCA (site CTGATGTCTTG)", "recombinant barcode read abundance (log10)": 0.0384}
{"sequence": "CTGGTGTCTTGGGTTCTAACCTGTTGCCA (site CTGCTGTCTTG)", "recombinant barcode read abundance (log10)": 0.0405}
{"sequence": "CTGGTGTCTTGGGTTCTAACCTGTTGCCA (site CTGGTGTCTTG)", "recombinant barcode read abundance (log10)": 1.12}
{"sequence": "CTGGTGTCTTGGGTTCTAACCTGTTGCCA (site CTGTTGTCTTG)", "recombinant barcode read abundance (log10)": 0.434}
{"sequence": "CTGTACTCTTGGGTTCTAACCTGTTGCCT (site CTGCACTCTTG)", "recombinant barcode read abundance (log10)": 0.126}
{"sequence": "CTGTACTCTTGGGTTCTAACCTGTTGCCT (site CTGTACTCTAG)", "recombinant barcode read abundance (log10)": 1.3}
{"sequence": "CTGTGAGCTTGGGTTCTAACCTGTTGCAG (site AACAATACTAG)", "recombinant barcode read abundance (log10)": 0.107}
{"sequence": "CTGTGAGCTTGGGTTCTAACCTGTTGCAG (site CTGTGAGCTCT)", "recombinant barcode read abundance (log10)": 1.47}
{"sequence": "CTGTGCACTTGGGTTCTAACCTGTTGCCG (site ATGTGCACTCT)", "recombinant barcode read abundance (log10)": 0.053}
{"sequence": "CTGTGCACTTGGGTTCTAACCTGTTGCCG (site CTGTGCACTCG)", "recombinant barcode read abundance (log10)": 0.197}
{"sequence": "CTGTGTCCTTGGGTTCTAACCTGTTGCGG (site CTGTGTCCTCC)", "recombinant barcode read abundance (log10)": 1.84}
{"sequence": "CTGTGTCCTTGGGTTCTAACCTGTTGCGG (site TCAGCCTCTAG)", "recombinant barcode read abundance (log10)": 0.214}
{"sequence": "CTTAACACTTGGGTTCTAACCTGTTGCCG (site CTTAACACTCG)", "recombinant barcode read abundance (log10)": 0.683}
{"sequence": "CTTAACACTTGGGTTCTAACCTGTTGCCG (site TCATGACCTAT)", "recombinant barcode read abundance (log10)": 0.0383}
{"sequence": "CTTACGACTTGGGTTCTAACCTGTTGCCT (site CTTACGACTAG)", "recombinant barcode read abundance (log10)": 0.695}
{"sequence": "CTTACGACTTGGGTTCTAACCTGTTGCCT (site GTTACAACTAG)", "recombinant barcode read abundance (log10)": 0.355}
{"sequence": "CTTACTACTTGGGTTCTAACCTGTTGCCA (site CTTACTACTTG)", "recombinant barcode read abundance (log10)": 0.0598}
{"sequence": "CTTACTACTTGGGTTCTAACCTGTTGCCA (site TCCGGCGCTCC)", "recombinant barcode read abundance (log10)": 0.0182}
{"sequence": "CTTACTGCTTGGGTTCTAACCTGTTGCCT (site CTTACAGCTAG)", "recombinant barcode read abundance (log10)": 0.775}
{"sequence": "CTTACTGCTTGGGTTCTAACCTGTTGCCT (site CTTACCGCTAG)", "recombinant barcode read abundance (log10)": 0.291}
{"sequence": "CTTACTGCTTGGGTTCTAACCTGTTGCCT (site CTTACGGCTAG)", "recombinant barcode read abundance (log10)": 0.295}
{"sequence": "CTTACTGCTTGGGTTCTAACCTGTTGCCT (site CTTACTGCTAG)", "recombinant barcode read abundance (log10)": 0.183}
{"sequence": "CTTAGGGCTTGGGTTCTAACCTGTTGCCT (site CTTAGGGCTAG)", "recombinant barcode read abundance (log10)": 0.419}
{"sequence": "CTTAGGGCTTGGGTTCTAACCTGTTGCCT (site CTTTGTGCTAG)", "recombinant barcode read abundance (log10)": 0.012}
{"sequence": "CTTAGGGCTTGGGTTCTAACCTGTTGCGG (site CTAAGGGCTCC)", "recombinant barcode read abundance (log10)": 2.14}
{"sequence": "CTTAGGGCTTGGGTTCTAACCTGTTGCGG (site CTTAGGGCTCC)", "recombinant barcode read abundance (log10)": 3.02}
{"sequence": "CTTCAAGCTTGGGTTCTAACCTGTTGCCT (site CTACAAGCTAG)", "recombinant barcode read abundance (log10)": 1.17}
{"sequence": "CTTCAAGCTTGGGTTCTAACCTGTTGCCT (site CTCCAAGCTAG)", "recombinant barcode read abundance (log10)": 0.257}
{"sequence": "CTTCAAGCTTGGGTTCTAACCTGTTGCCT (site CTGCAAGCTAG)", "recombinant barcode read abundance (log10)": 0.197}
{"sequence": "CTTCAAGCTTGGGTTCTAACCTGTTGCCT (site CTTCAAGCTAG)", "recombinant barcode read abundance (log10)": 0.983}
{"sequence": "CTTCGAACTTGGGTTCTAACCTGTTGCAT (site ACATACCCTCA)", "recombinant barcode read abundance (log10)": 0.609}
{"sequence": "CTTCGAACTTGGGTTCTAACCTGTTGCAT (site CTTCGAACTAT)", "recombinant barcode read abundance (log10)": 0.407}
{"sequence": "CTTCGACCTTGGGTTCTAACCTGTTGCAT (site CTTCGACCTAT)", "recombinant barcode read abundance (log10)": 2.04}
{"sequence": "CTTCGACCTTGGGTTCTAACCTGTTGCAT (site CTTGGACCTCT)", "recombinant barcode read abundance (log10)": 0.0729}
{"sequence": "CTTCGAGCTTGGGTTCTAACCTGTTGCAG (site CTTCGAGCTCA)", "recombinant barcode read abundance (log10)": 0.172}
{"sequence": "CTTCGAGCTTGGGTTCTAACCTGTTGCAG (site CTTCGAGCTCC)", "recombinant barcode read abundance (log10)": 0.288}
{"sequence": "CTTCGAGCTTGGGTTCTAACCTGTTGCAG (site CTTCGAGCTCG)", "recombinant barcode read abundance (log10)": 0.168}
{"sequence": "CTTCGAGCTTGGGTTCTAACCTGTTGCAG (site CTTCGAGCTCT)", "recombinant barcode read abundance (log10)": 1.35}
{"sequence": "CTTCGCCCTTGGGTTCTAACCTGTTGCTT (site ACAGTGGCTCC)", "recombinant barcode read abundance (log10)": 0.0481}
